According to patent publication US20240368278A1, “GENERATION AND CHARACTERIZATION OF NOVEL TIM-4 BINDING AGENTS” (Heat Biologics, Inc., priority 2021, published 2024):
Entries after “also recorded” stand apart in the source; their conditions may differ.

Assays:
RAW 264.7 cells = test: RAW phagocytosis assay with carboxylate beads; assay type: cell-based, mouse; details: across a range of doses
Description: In FIG. 9A, cells were plated on a 96 well plate and treatments were performed with carboxylate beads. Statistics were performed using a one-way ANOVA, followed by a multiple comparison test comparing each treatment to the “untreated” control (p>0.05=*, p>0.01=**, p>0.001=***, p>0.0001=****). In FIG. 9B, a dose response curve of a RAW phagocytosis assay was performed using mouse macrophages RAW cells with cytochalasin D as a control, and graphed in log scale.
(§1) To further validate the function of the synthesized peptide, SEQ ID NO: 17, a phagocytosis assay using SEQ ID NO: 17 in THP-1 cells (FIG. 8A, FIG. 8B, FIG. 8C, and FIG. 8D), and in RAW 264.7 cells (FIG. 9A and FIG. 9B), was performed. […] A dose response curve for SEQ ID NO: 17 in THP-1 cells was generated (FIG. 8D). […] A dose response curve for SEQ ID NO: 17 in RAW 264.7 cells was generated (FIG. 9B).

THP-1 cells [1] = test: Autophagy assay (autophagosome formation) in THP-1 cells; assay type: cell-based; details: labeled autophagosomes, Hoechst nuclear stain
From the text: In FIG. 11B, autophagosomes are labeled and Hoechst stain is used for nuclear staining.

THP-1 cells [2] = test: Phagocytosis assay in THP-1 cells with carboxylate beads; assay type: cell-based; details: 96 well plate, vs untreated control
Description: FIG. 3A and FIG. 3B are graphs showing dose response curves of the phagocytosis assay in THP-1 cells using both PS beads and carboxylate beads.
In FIG. 8A, cells were plated on a 96 well plate and treatments were performed with carboxylate beads. Statistics were performed using a one-way ANOVA followed by a multiple comparison test comparing each treatment to the “untreated” control (p>0.05=*, p>0.01=**, p>0.001=***, p>0.0001=****). FIG. 8B are representative images of the phagocytosis assay. […] Scale bare represents 150 μm. […] Scale bar represents 150 μm. FIG. 8D is a graph of a dose response curve.
as §1

Tim4-Hek293-FT cells = test: Phagocytosis assay in Tim4-Hek293-FT cell line; assay type: cell-based; details: for inhibition of phagocytosis (RFU): Tim4-Hek293-FT cells, 96 well plate, vs untreated control
Description: Stable Tim-4 expression was confirmed by RT-PCR using primers against Tim-4 mRNA and Gapdh mRNA (control). […] Scale bar represents 300 μm.
In FIG. 5A, the Tim4-Hek293-FT cells were plated in a 96 well plate, followed by the phagocytosis assay. Statistical analysis was performed using a t-test (p>0.05=*). Relative fluorescence units (“RFU”) were normalized to fluorescent intensity at hour zero. In FIG. 5B, Tim4-Hek293-FT cells were fixed and immunolabeled against Tim-4 and counterstained with DAPI. […] Arrows indicate phosphatidylserine bead. Scale bar represents 75 μm.
In FIG. 7A, cells were plated on a 96 well plate and treatments were performed similar to FIG. 2A. Statistics were performed using a one-way ANOVA followed by a multiple comparison test comparing each treatment to the “untreated” control (p>0.05=*, p>0.01=**, p>0.001=***). […] In FIG. 7A, “116-117 1A” is SEQ ID NO: 30 ([…]), “116-117 2C” is SEQ ID NO: 23 ([…]), “116-117 2D” is SEQ ID NO: 24 ([…]), “116-117 2F” is SEQ ID NO: 25 ([…]), “116-117 3B” is SEQ ID NO: 26 ([…]), “116-117 3C” is SEQ ID NO: 27 ([…]), “116-117 3E” is SEQ ID NO: 17 ([…]), “116-117 3F” is SEQ ID NO: 28 ([…]), “116-117 4A” is SEQ ID NO: 22 ([…]), and “116-117 4G” is SEQ ID NO: 29 ([…]). […] Scale bar represents 150 μm.
To further validate the function of the synthesized peptides, a Tim4-Hek293-FT cell line was developed (FIG. 4A).
A phagocytosis assay, as previously described above and following the experimental outline of FIG. 2A, was performed in the Tim4-Hek293-FT cells. In these experiments, cytochalasin D (20 μM) was used as a control to show phagocytosis failure. […] The inhibition of phagocytosis by SEQ ID NO: 17 is also shown in the immunofluorescence images of FIG. 7B.

THP-1 cells [3] = test: Phagocytosis assay in THP-1 cells with phosphatidylserine lipid microparticles; assay type: cell-based; details: for inhibition of phagocytosis (RFU): phosphatidylserine lipid microparticles, peptides at 100 μg/mL, 3 h under serum starvation, vs untreated control
From the text: FIG. 2A, FIG. 2B, and FIG. 2C show an image of the THP-1 experimental workflow, an image of THP-1 cells undergoing phagocytosis, and a graph showing data from the phagocytosis experiment. FIG. 2A is an image of the experimental workflow. FIG. 2B is a graph showing data from the peptides derived from the CDR3 regions of antibodies tested in the phagocytosis assay. In FIG. 2B, along the x-axis, “156-1G” refers to SEQ ID NO: 7, “156-IH” refers to SEQ ID NO: 11, “156-2B” refers to SEQ ID NO: 3, and “156-2F” refers to SEQ ID NO: 15. In this assay, cells were treated with the indicated treatments, and cytochalasin D (20 μM) was used as a control to show phagocytosis failure. CDR3 regions from antibodies that bound to Tim-4 were synthesized as peptides, and subsequently tested. The data shown in FIG. 2B represents peptides tested at 100 μg/mL. Statistics were performed using a one-way ANOVA followed by a multiple comparison test comparing each treatment to “untreated” control (p>0.05=*, ns=not significant). […] Phosphatidylserine (“PS”) lipid microparticles are shown and superimposed onto brightfield images of THP-1 cells. […] Scale bar represents 150 μm.
Phagocytosis assays using the developed peptides derived from the CDR3 regions of antibodies (e.g., SEQ ID NO: 35, SEQ ID NO: 36, SEQ ID NO: 37, and SEQ ID NO: 38) and THP-1 cells were completed by following the experimental outline shown in FIG. 2A. In these experiments, 1×10^5 cells were seeded on a 96 well plate, and the synthesized peptides (e.g., SEQ ID NO: 35, SEQ ID NO: 36, SEQ ID NO: 37, and SEQ ID NO: 38) were then added onto the plate for three hours under serum starvation. Phosphatidylserine lipid microparticles were then added in media containing 10% FBS. Cells were then washed 3 to 5 times with PBS, and the level of fluorescence (e.g., relative fluorescence units, “RFU”) was then analyzed with a plate reader. In these experiments, cytochalasin D (20 μM) was used as a control to show phagocytosis failure. […]

Tim-4 = molecular target: T1, Tim-4 (Homo sapiens, UniProt Q96H15); test: Binding to Tim-4 (identification of binders)
T1 sequence (Q96H15 25-378): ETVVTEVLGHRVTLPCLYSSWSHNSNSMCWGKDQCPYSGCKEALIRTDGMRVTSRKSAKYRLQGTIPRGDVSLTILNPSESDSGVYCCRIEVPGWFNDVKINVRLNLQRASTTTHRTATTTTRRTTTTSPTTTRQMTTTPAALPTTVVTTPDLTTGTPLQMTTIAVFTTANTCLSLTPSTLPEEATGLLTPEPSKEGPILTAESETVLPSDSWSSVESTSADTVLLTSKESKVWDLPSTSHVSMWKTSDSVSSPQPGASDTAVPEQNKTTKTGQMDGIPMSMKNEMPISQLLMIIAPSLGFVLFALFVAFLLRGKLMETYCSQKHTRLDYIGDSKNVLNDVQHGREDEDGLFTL

binding to Tim-4 (Tim-4) | Sequence | inhibition of phagocytosis (RAW 264.7 cells) | autophagosome formation (THP-1 cells [1]) | inhibition of phagocytosis (THP-1 cells [2]) | inhibition of phagocytosis (THP-1 cells [2]; listed as 116-117 3E) | phagocytosis of the phosphatidylserine bead (immunofluorescence image) (Tim4-Hek293-FT cells; Tim4-Hek293-FT cells fixed, immunolabeled against Tim-4, DAPI) | inhibition of phagocytosis (RFU) (Tim4-Hek293-FT cells) | inhibition of phagocytosis (RFU) (Tim4-Hek293-FT cells; listed as 116-117 3E) | inhibition of phagocytosis with phosphatidylserine lipid microparticles compared to carboxylate beads (dose response curves) (THP-1 cells [3]) | inhibition of phagocytosis (RFU) (THP-1 cells [3])
bound to Tim4 | QCYANHMYCNDSIAVYHFQM [SEQ ID NO: 17] | inhibited phagocytosis | reduces autophagosome formation | inhibited phagocytosis | inhibits phagocytosis | reduced ability of phagocytosis | inhibited phagocytosis | inhibits phagocytosis | greater inhibition | 
 | QTLAFAYNDSDWFEVYKG [156-1G] |  |  |  |  |  |  |  |  | significantly inhibited phagocytosis
 | KVAVMTMAEANRRGTYSS [SEQ ID NO: 3] |  |  |  |  |  | inhibit phagocytosis; also recorded: limit phagocytosis |  |  | significantly inhibited phagocytosis
